tested on: c-MET; assay: c-MET protein degradation (Simple Western), MKN-45 cells; assay type: cell-based, human; conditions: MKN-45 gastric cancer cells, c-MET overexpressing; 24 hours
Description: In order to assess the resolution of the compound of the present invention for c-MET expressed in cells, cells were dispensed in a 12-well plate at a concentration of 2×10^5 cells/well, and then gastric cancer cell lines were treated with samples for 24 hours and lung cancer cell lines were treated for 48 hours. Cell lysates were collected using a scraper on ice, centrifuged at 4° C. 15,000 rpm for 30 min to obtain a protein-containing supernatant. Protein expression was then measured using the Simple Western Automated Western Blot System Abby instrument using 3 μg of protein for each sample. SDS and heat-induced denaturation proteins were separated by molecular weight, attached to capillary, reacted with anti-c-MET or anti-GAPDH antibodies, which are primary antibodies, and then reacted with HRP-conjugated secondary antibodies, and analyzed the protein expression signal with compass software. Protein expression was normalized based on the expression value of GAPDH, and protein development in each sample was measured as a percentage (%) based on 100% of samples treated with 0.1% DMSO carriers, and DC50 (concentration of a compound where 50% protein inhibition is achieved) was calculated from the change in protein expression amount due to compound treatment.

Row | Structure (SMILES) | DC50 [nM]
1 | Cn1cc(-c2cnc3c(nnn3C[C@@H]3CN(c4ncc(-c5ccc(CN6CCN(C(=O)CN7CCN(c8ccc9c(=O)n(C%10CCC(=O)NC%10=O)ncc9c8)CC7)CC6)cc5)cn4)CCO3)n2)cn1 (stereo partly shown) [ICT-0001109] | < 100
2 | Cc1nn(C2CCC(=O)NC2=O)c(=O)c2ccc(N3CCN(CC4CCN(CC(=O)N5CCC(COc6cnc(-c7cccc(Cn8nc(-c9cccc(C#N)c9)ccc8=O)c7)nc6)CC5)CC4)CC3)cc12 (stereo not shown) [ICT-0001256] | < 100
3 | Cc1nn(C2CCC(=O)NC2=O)c(=O)c2ccc(N3CCN(C(=O)CCCN4CCC(COc5cnc(-c6cccc(Cn7nc(-c8cccc(C#N)c8)ccc7=O)c6)nc5)CC4)CC3)cc12 (stereo not shown) [ICT-0001227, 3-(1-(3-(5-((1-(4-(4-(2-(2,6-dioxopiperidin-3-yl)-4-methyl-1-oxo-1,2-dihydropetalazine-6-yl)piperazine-1-yl)4-oxobutyl)piperidine-4-yl)methoxy)pyrimidine-2-yl)benzyl)6-oxo-1,6-dihydropyridazine-3-yl)benzonitrile] | 100 to 1000
4 | Cn1cc(-c2cnc3c(nnn3C[C@@H]3CN(c4ncc(-c5ccc(CN6CCN(C(=O)CCCCNc7ccc8c(=O)n(C9CCC(=O)NC9=O)ncc8c7)CC6)cc5)cn4)CCO3)n2)cn1 (stereo partly drawn) [ICT-0000924, 3-(6-((5-(4-(4-(2-((S)-2-((5-(1-methyl-1H-pyrazole-4-yl)-1H-[1,2,3]triazolo[4,5-b]pyrazine-1-yl)methyl)morpholino)pyrimidine-5-yl)benzyl)piperazine-1-yl)5-oxopentyl)amino)1-oxopthalazine-2(1H)-yl)piperidine-2,6-dione] | < 100
5 | Cc1nn(C2CCC(=O)NC2=O)c(=O)c2ccc(N3CCN(C(=O)CCCCN4CCC(COc5cnc(-c6cccc(Cn7nc(-c8cccc(C#N)c8)ccc7=O)c6)nc5)CC4)CC3)cc12 (stereo not shown) [ICT-0001250] | 100 to 1000
6 | Cc1nn(C2CCC(=O)NC2=O)c(=O)c2cc(N3CCN(C(=O)CCN4CCC(COc5cnc(-c6cccc(Cn7nc(-c8cccc(C#N)c8)ccc7=O)c6)nc5)CC4)CC3)ccc12 (stereo not shown) [ICT-0001225] | < 100
7 | Cc1nn(C2CCC(=O)NC2=O)c(=O)c2cc(N3CCN(C(=O)CCCN4CCC(COc5cnc(-c6cccc(Cn7nc(-c8cccc(C#N)c8)ccc7=O)c6)nc5)CC4)CC3)ccc12 (stereo not shown) [ICT-0001228] | < 100
8 | N#Cc1cccc(-c2ccc(=O)n(Cc3cccc(-c4ncc(OCC5CCN(C(=O)CCCCN6CCN(c7ccc8c(=O)n(C9CCC(=O)NC9=O)ncc8c7)CC6)CC5)cn4)c3)n2)c1 (stereo not shown) [ICT-0001201, 3-(1-{[3-(5-{[1-(5-{4-[2-(2,6-dioxopiperidin-3-yl)-1-oxo-1,2-dihydropetalazine-6-yl]piperazine-1-yl}pentanoyl)piperidine-4-il]methoxy}pyrimidine-2-yl)phenyl]methyl}6-oxo-1,6-dihydropyridazine-3-yl)benzonitrile] | < 100
9 | Cc1nn(C2CCC(=O)NC2=O)c(=O)c2ccc(NCCOCCOCCOCCOCCC(=O)N3CCC(COc4cnc(-c5cccc(Cn6nc(-c7cccc(C#N)c7)ccc6=O)c5)nc4)CC3)cc12 (stereo not shown) [ICT-0001091] | < 100
10 | N#Cc1cccc(-c2ccc(=O)n(Cc3cccc(-c4ncc(OCC5CCN(CCCC(=O)N6CCN(c7ccc8c(=O)n(C9CCC(=O)NC9=O)ncc8c7)CC6)CC5)cn4)c3)n2)c1 (stereo not shown) [ICT-0001226, 3-(1-(3-(5-((1-(4-(4-(2-(2,6-dioxopiperidine-3-yl)-1-oxo-1,2-dihydropetalazine-6-yl)piperazine-1-il)-4-oxobutyl)piperidine-4-il)methoxy)pyrimidine-2-yl)benzyl)-6-oxo-1,6-dihydropyridazine-3-yl)benzonitrile] | 100 to 1000
11 | Cc1nn(C2CCC(=O)NC2=O)c(=O)c2c(NCC(=O)N3CCC(COc4cnc(-c5cccc(Cn6nc(-c7cccc(C#N)c7)ccc6=O)c5)nc4)CC3)cccc12 (stereo not shown) [ICT-0000981] | > 1000
12 | Cc1nn(C2CCC(=O)NC2=O)c(=O)c2cc(N3CCN(C(=O)CCCCN4CCC(COc5cnc(-c6cccc(Cn7nc(-c8cccc(C#N)c8)ccc7=O)c6)nc5)CC4)CC3)ccc12 (stereo not shown) [ICT-0001251] | < 100
13 | N#Cc1cccc(-c2ccc(=O)n(Cc3cccc(-c4ncc(OCC5CCN(C(=O)CCCN6CCN(c7ccc8c(=O)n(C9CCC(=O)NC9=O)ncc8c7)CC6)CC5)cn4)c3)n2)c1 (stereo not shown) [ICT-0001200, 3-(1-{[3-(5-{[1-(4-{4-[2-(2,6-dioxopiperidine-3-yl)-1-oxo-1,2-dihydropthalazine-6-yl]piperazine-1-day}butanoyl)piperidine-4-il]methoxy}pyrimidine-2-yl)phenyl]methyl}6-oxo-1,6-dihydropyridazine-3-yl)benzonitrile] | < 100
14 | N#Cc1cccc(-c2ccc(=O)n(Cc3cccc(-c4ncc(OCC5CCN(CC(=O)N6CCN(c7ccc8c(=O)n(C9CCC(=O)NC9=O)ncc8c7)CC6)CC5)cn4)c3)n2)c1 (stereo not shown) [ICT-0001221] | < 100
15 | Cc1nn(C2CCC(=O)NC2=O)c(=O)c2ccc(N3CCC(CN4CCN(C(=O)CN5CCC(COc6cnc(-c7cccc(Cn8nc(-c9cccc(C#N)c9)ccc8=O)c7)nc6)CC5)CC4)CC3)cc12 (stereo not shown) [ICT-0001236] | < 100
16 | Cc1nn(C2CCC(=O)NC2=O)c(=O)c2ccc(N3CCN(CCC(=O)N4CCC(COc5cnc(-c6cccc(Cn7nc(-c8cccc(C#N)c8)ccc7=O)c6)nc5)CC4)CC3)cc12 (stereo not shown) [ICT-0001174] | < 100
17 | Cc1nn(C2CCC(=O)NC2=O)c(=O)c2cc(N3CCC(N4CCN(CC(=O)N5CCC(COc6cnc(-c7cccc(Cn8nc(-c9cccc(C#N)c9)ccc8=O)c7)nc6)CC5)CC4)CC3)ccc12 (stereo not shown) [ICT-0001270] | < 100
18 | Cn1cc(-c2cnc3c(nnn3C[C@@H]3CN(c4ncc(-c5ccc(CN6CCN(C(=O)COCCOCCOCCNc7ccc8c(=O)n(C9CCC(=O)NC9=O)ncc8c7)CC6)cc5)cn4)CCO3)n2)cn1 (stereo partly drawn) [ICT-0000938, 3-[6-(12-{4-[(4-{2-[(2S)-2-{[5-(1-methyl-1H-pyrazole-4-yl)-1H-[1,2,3]triazolo[4,5-b]pyrazine-1-yl]methyl}morpholine-4-yl]pyrimidine-5-yl}phenyl)methyl]piperazine-1-yl}-12-oxo-4,7,10-trioxa-1-azadodecane-1-yl)-1-oxo-1,2-dihydroptalazine-2-yl]piperidine-2,6-dione] | > 1000
19 | Cn1cc(-c2cnc3c(nnn3C[C@@H]3CN(c4ncc(-c5ccc(CN6CCN(C(=O)COCCOCCOCCOCCNc7ccc8c(=O)n(C9CCC(=O)NC9=O)ncc8c7)CC6)cc5)cn4)CCO3)n2)cn1 (stereo partly drawn) [ICT-0000939, 3-[6-(15-{4-[(4-{2-[(2S)-2-{[5-(1-methyl-1H-pyrazole-4-yl)-1H-[1,2,3]triazolo[4,5-b]pyrazine-1-yl]methyl}morpholine-4-yl]pyrimidine-5-yl}phenyl)methyl]piperazine-1-yl}-15-oxo-4,7,10,13-tetraoxa-1-azpentadecane-1-yl)-1-oxo-1,2-dihydroptalazine-2-yl]piperidine-2,6-dione] | > 1000
20 | Cn1cc(-c2cnc3c(nnn3C[C@@H]3CN(c4ncc(-c5ccc(CN6CCN(C(=O)CCOCCOCCNc7cccc8cnn(C9CCC(=O)NC9=O)c(=O)c78)CC6)cc5)cn4)CCO3)n2)cn1 (stereo partly shown) [ICT-0000940] | 100 to 1000
21 | Cc1nn(C2CCC(=O)NC2=O)c(=O)c2ccc(N3CCN(CCCCC(=O)N4CCC(COc5cnc(-c6cccc(Cn7nc(-c8cccc(C#N)c8)ccc7=O)c6)nc5)CC4)CC3)cc12 (stereo not shown) [ICT-0001176] | < 100
22 | Cc1nn(C2CCC(=O)NC2=O)c(=O)c2ccc(NCCOCCOCC(=O)N3CCC(COc4cnc(-c5cccc(Cn6nc(-c7cccc(C#N)c7)ccc6=O)c5)nc4)CC3)cc12 (stereo not shown) [ICT-0001087] | < 100

From patent publication US20260306639A1, “DEGRADER FOR DECOMPOSING CMET PROTEIN, AND PHARMACEUTICAL COMPOSITION COMPRISING SAME” (INNOCURE THERAPEUTICS, INC., priority 2022, published 2026)
